Values of other authors in article PMC3853759 (International Journal of Pharmaceutical Investigation, 2013).

Experiments:
[1] = test system: mice
[2] = test system: rats

[Zn] [Zn, Zinc]
oral Zn dose producing acute toxicity [1]: 86 to 605 mg/kg
oral Zn dose producing acute toxicity [2]: 237 to 623 mg/kg
